This test concerns the target T1, ATM (Homo sapiens, UniProt Q13315).
T1 construct: detecting phosphorylation of Chk2 in a human non-small cell lung cancer cell line NCI-H460 (ATCC company); host or cells: NCI-H460 human non-small cell lung cancer cells
Briefly: ATM inhibition test (phosphorylation of Chk2 generated by ionizing radiation, AlphaScreen SureFire). As to conditions: phosphorylated Chk2 in NCI-H460 cells, ionizing radiation 8Gy, 1 hour after test compound treatment; read-out: ATM inhibitory activity. Format: cell-based. The procedure, abridged:
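NCI-H460 cells, compound 1 h pre-treatment, 8Gy IR, further 1 h at 37° C in 5% CO2. Read-out: phospho-Chk2 via AlphaScreen SureFire. % inhibition relative to IR-induced signal window (irradiated vs non-irradiated drug-free wells).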
(In general: Bead proximity is the source of the signal in Alpha formats.)
T1 sequence (Q13315 whole entry): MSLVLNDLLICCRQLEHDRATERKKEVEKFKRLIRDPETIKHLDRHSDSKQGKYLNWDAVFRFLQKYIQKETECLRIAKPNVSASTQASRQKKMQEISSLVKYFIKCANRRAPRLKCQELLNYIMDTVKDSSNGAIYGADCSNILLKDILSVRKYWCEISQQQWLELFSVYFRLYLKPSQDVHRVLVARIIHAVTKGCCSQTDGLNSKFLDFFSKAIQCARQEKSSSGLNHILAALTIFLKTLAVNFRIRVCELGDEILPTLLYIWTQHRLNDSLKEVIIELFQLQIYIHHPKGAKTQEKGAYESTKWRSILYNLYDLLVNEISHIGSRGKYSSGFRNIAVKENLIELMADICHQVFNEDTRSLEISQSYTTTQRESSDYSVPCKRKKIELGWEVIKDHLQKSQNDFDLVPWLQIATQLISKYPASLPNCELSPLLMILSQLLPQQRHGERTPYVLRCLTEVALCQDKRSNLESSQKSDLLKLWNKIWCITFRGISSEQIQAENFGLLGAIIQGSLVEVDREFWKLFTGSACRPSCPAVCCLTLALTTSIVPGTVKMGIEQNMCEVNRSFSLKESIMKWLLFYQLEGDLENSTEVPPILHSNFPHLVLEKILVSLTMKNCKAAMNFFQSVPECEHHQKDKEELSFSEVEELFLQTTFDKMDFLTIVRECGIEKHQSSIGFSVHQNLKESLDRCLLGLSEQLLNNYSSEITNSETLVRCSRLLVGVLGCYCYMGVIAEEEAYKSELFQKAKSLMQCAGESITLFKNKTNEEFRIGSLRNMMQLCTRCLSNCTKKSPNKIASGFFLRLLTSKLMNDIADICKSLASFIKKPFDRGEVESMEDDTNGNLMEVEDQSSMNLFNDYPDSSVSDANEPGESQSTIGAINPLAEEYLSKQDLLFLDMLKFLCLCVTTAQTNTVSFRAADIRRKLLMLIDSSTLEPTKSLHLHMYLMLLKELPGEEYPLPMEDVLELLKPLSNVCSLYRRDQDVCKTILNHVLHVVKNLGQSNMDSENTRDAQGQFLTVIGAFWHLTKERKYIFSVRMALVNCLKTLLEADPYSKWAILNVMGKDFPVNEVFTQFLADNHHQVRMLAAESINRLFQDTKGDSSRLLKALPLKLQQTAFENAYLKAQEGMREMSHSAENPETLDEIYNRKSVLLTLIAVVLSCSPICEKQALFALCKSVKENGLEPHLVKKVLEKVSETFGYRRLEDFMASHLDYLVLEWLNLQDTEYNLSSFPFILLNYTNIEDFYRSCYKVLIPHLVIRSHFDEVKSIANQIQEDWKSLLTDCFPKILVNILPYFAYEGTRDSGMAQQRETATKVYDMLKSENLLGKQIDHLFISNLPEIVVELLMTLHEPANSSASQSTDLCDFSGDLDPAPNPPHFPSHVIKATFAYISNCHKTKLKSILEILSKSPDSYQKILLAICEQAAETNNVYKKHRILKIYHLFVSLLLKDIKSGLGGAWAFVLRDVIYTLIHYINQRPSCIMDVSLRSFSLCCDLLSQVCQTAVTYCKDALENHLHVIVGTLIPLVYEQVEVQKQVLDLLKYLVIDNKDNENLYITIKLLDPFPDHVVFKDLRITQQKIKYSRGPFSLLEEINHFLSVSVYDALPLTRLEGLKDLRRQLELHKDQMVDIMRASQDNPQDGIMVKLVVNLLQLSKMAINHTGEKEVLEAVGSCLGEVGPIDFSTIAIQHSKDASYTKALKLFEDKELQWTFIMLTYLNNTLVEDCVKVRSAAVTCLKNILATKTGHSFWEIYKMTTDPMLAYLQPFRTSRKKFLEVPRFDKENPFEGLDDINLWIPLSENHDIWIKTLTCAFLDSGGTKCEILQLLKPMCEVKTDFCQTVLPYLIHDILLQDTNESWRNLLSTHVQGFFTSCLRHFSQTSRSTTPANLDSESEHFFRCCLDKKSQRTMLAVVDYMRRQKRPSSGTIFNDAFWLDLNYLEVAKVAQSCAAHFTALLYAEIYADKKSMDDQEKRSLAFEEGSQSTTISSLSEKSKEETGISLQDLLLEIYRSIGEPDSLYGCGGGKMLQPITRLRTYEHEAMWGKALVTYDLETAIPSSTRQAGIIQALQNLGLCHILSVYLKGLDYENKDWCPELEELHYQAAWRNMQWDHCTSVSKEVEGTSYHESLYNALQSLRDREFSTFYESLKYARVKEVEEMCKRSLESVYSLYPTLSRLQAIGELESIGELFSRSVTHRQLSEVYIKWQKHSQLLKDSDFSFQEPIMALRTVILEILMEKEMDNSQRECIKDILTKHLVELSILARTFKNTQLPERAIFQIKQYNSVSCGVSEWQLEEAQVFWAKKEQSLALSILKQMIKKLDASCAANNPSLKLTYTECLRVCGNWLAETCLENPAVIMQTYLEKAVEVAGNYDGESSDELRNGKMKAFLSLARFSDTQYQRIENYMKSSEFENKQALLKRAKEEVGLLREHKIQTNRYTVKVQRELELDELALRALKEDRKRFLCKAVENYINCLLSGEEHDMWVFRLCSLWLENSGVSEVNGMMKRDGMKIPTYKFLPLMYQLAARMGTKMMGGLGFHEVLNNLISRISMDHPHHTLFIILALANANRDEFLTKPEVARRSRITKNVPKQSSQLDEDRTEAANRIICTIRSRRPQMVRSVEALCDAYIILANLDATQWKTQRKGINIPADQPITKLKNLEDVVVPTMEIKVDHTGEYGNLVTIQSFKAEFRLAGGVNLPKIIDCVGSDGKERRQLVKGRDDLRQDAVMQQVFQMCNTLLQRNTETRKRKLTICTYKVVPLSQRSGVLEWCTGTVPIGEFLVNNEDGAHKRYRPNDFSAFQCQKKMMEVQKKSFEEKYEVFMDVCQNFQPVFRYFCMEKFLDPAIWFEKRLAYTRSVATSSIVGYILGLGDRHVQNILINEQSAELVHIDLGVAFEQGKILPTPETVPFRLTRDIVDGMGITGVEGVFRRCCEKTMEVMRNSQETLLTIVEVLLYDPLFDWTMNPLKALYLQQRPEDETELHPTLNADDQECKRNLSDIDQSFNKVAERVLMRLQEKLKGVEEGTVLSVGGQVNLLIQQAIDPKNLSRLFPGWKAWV
As to `O=c1cc(N2CCOCC2)cc(-c2cccc3c2Sc2ccc(NCc4ccncc4)cc2C3)[nH]1` [Example 3-8-2, 4-Morpholino-6-(7-((pyridin-4-ylmethyl)amino)-9H-thioxanthen-4-yl)pyridin-2(1H)-one], the IC50 was 500 to 2000 nM.

As to `O=c1cc(N2CCOCC2)cc(-c2cccc3c2Oc2ccc(NC4CCNCC4)cc2S3)[nH]1` [Example 4-9, 4-Morpholino-6-(8-(piperidin-4-ylamino)phenoxathiin-4-yl)pyridin-2(1H)-one], the IC50 was in the range of 100 to 500 nM.

As for `O=c1cc(N2CCOCC2)cc(-c2cccc3c2Sc2ccc(NCc4cccnc4)cc2S3)[nH]1` [Example 1-12-25, 4-Morpholino-6-(7-((pyridin-3-ylmethyl)amino)thianthren-1-yl)pyridin-2 (1H)-one], the IC50 lay in the range of 100 to 500 nM.

In the case of `Cc1cnc(C(CCN(C)CCF)Nc2ccc3c(c2)Sc2cccc(-c4cc(N5CCOCC5)cc(=O)[nH]4)c2S3)cn1` (single isomer, unassigned) [Example 10-3-6, 6-(7-((3-((2-Fluoroethyl) (methyl)amino)-1-(5-methylpyrazin-2-yl)propyl)amino)thianthren-1-yl)-4-morpholino pyridin-2(1H)-onc], the IC50 is below 100 nM.

Take `N#CCC(CN1CCOCC1)Nc1ccc2c(c1)Sc1cccc(-c3cc(N4CCOCC4)cc(=O)[nH]3)c1S2` (stereo not drawn) [Example 9-2, 4-Morpholino-3-((6-(4-morpholino-6-oxo-1,6-dihydropyridin-2-yl)thianthren-2-yl)amino)butanenitrile]: the IC50 was 100 to 500 nM.

As to `COc1ncc(CNc2ccc3c(c2)Cc2ccnc(-c4cc(N5CCOCC5)cc(=O)[nH]4)c2O3)cn1` [Example 2-42-1, 6-(7-(((2-Methoxypyrimidin-5-yl)methyl)amino)-5H-chromeno[2,3-c]pyridin-1-yl)-4-morpholinopyridin-2(1H)-one], the IC50 fell in the range of 500 to 2000 nM.

With `O=c1cc(N2CCOCC2)cc(-c2cccc3c2Oc2ccc(NCc4cncc(C5CC5)c4)cc2S3)[nH]1` [Example 4-8-7, 6-(8-(((5-Cyclopropylpyridin-3-yl)methyl)amino)phenoxathiin-4-yl)-4-morpholino pyridin-2(1H)-one], the IC50 fell in the range of 100 to 500 nM.

`O=c1cc(N2CCOCC2)cc(-c2cccc3c2Oc2ccc(NCCCc4cccnc4)cc2C3)[nH]1` [Example 2-14-14, 4-Morpholino-6-(7-((3-(pyridin-3-yl)propyl)amino)-9H-xanthen-4-yl) pyridin-2(1H)-one]: the IC50 is 100 to 500 nM.

For `O=c1cc(N2CCOCC2)cc(-c2cccc3c2Oc2ccc(NCc4cnc5c(c4)OCCO5)cc2C3)[nH]1` [Example 2-2-29, 6-(7-(((2,3-Dihydro-[1,4]dioxino[2,3-b]pyridin-7-yl)methyl)amino)-9H-xanthen-4-yl)-4-morpholino pyridin-2 (1H)-one], the IC50 was below 100 nM.

Regarding `CC(C)(C)OC(=O)N1CCC[C@H]1C(=O)Nc1ccc2c(c1)Cc1cccc(-c3cc(N4CCOCC4)cc(=O)[nH]3)c1O2` [Example 2-20-2, (S)-tert-butyl 2-((5-(4-morpholino-6-oxo-1,6-dihydropyridin-2-yl)-9H-xanthen-2-yl)carbamoyl)pyrrolidine-1-carboxylate], the IC50 was in the range of 500 to 2000 nM.

As to `COc1cccc(CCN2CCC(Nc3ccc4c(c3)Cc3cccc(-c5cc(N6CCOCC6)cc(=O)[nH]5)c3O4)CC2)c1` [Example 2-30-11, 6-(7-((1-(3-Methoxyphenethyl)piperidin-4-yl)amino)-9H-xanthen-4-yl)-4-morpholino pyridin-2 (1H)-one], the IC50 fell in the range of 100 to 500 nM.

Regarding `O=c1cc(N2CCOCC2)cc(-c2cccc3c2Sc2ccc(NC(CN4CCOCC4)CN4CCOCC4)cc2S3)[nH]1` [Example 1-51-12, 6-(7-((1,3-Dimorpholinopropan-2-yl)amino)thianthren-1-yl)-4-morpholino pyridin-2 (1H)-one], the IC50 was below 100 nM.

Take `O=c1cc(N2CCOCC2)cc(-c2cccc3c2Oc2ccc(NCc4cccc(C5CC5)n4)cc2S3)[nH]1` [Example 4-4-21, 6-(8-(((6-Cyclopropylpyridin-2-yl)methyl)amino)phenoxathiin-4-yl)-4-morpholino pyrdin-2(1H)-one]: the IC50 lay in the range of 100 to 500 nM.

Take `CCCC(Nc1ccc2c(c1)Sc1cccc(-c3cc(N4CCOCC4)cc(=O)[nH]3)c1S2)[C@H](C)N` (stereo partly drawn) [Example 1-20-2, 6-(7-(((2S)-2-Aminohexan-3-yl)amino)thianthren-1-yl)-4-morpholino pyridin-2(1H)-one]: the IC50 was in the range of 100 to 500 nM.

On to `Cc1cccc(C(CO)Nc2ccc3c(c2)Sc2cccc(-c4cc(N5CCOCC5)cc(=O)[nH]4)c2S3)n1` (single isomer, unassigned) [Example 1-12-140-1, 6-(7-((2-hydroxy-1-(6-methylpyridin-2-yl)ethyl)amino)thianthren-1-yl)-4-morpholinopyridin-2(1H)-one], for which the IC50 lay in the range of 100 to 500 nM.

For `CCC(CNc1ccc2c(c1)Sc1cccc(-c3cc(N4CCOCC4)cc(=O)[nH]3)c1S2)N1CCOCC1` (stereo not drawn) [Example 1-9-1, 4-morpholino-6-(7-((2-morpholinobutyl)amino)thianthren-1-yl)pyridin-2(1H)-one], the IC50 lay in the range of 100 to 500 nM.

Consider `COc1ccnc(C(C)Nc2ccc3c(c2)Cc2cccc(-c4cc(N5CCOCC5)cc(=O)[nH]4)c2O3)n1` (stereo not drawn) [Example 2-14-56, 6-(7-((1-(4-Methoxypyrimidin-2-yl)ethyl)amino)-9H-xanthen-4-yl)-4-morpholino pyridin-2(1H)-one], for which the IC50 lay within 100 to 500 nM.

In the case of `O=c1cc(N2CCOCC2)cc(-c2cccc3c2Oc2ccc(NCc4cncc(-c5cn[nH]c5)c4)cc2C3)[nH]1` [Example 2-8-2, 6-(7-(((5-(1H-pyrazol-4-yl)pyridin-3-yl)methyl)amino)-9H-xanthen-4-yl)-4-morpholinopyridin-2(1H)-one], the IC50 lay in the range of 100 to 500 nM.

In the case of `Cc1ccc(CNc2ccc3c(c2)Cc2ccnc(-c4cc(N5CCOCC5)cc(=O)[nH]4)c2O3)cn1` [Example 2-42-4, 6-(7-(((6-Methylpyridin-3-yl)methyl)amino)-5H-chromeno[2,3-c]pyridin-1-yl)-4-morpholinopyridin-2(1H)-one], the IC50 lay within 100 to 500 nM.

As to `O=c1cc(N2CCOCC2)cc(-c2cccc3c2Oc2ccc(NC4CCN(Cc5ccsc5)CC4)cc2C3)[nH]1` [Example 2-28-26, 4-Morpholino-6-(7-((1-(thiophen-3-ylmethyl)piperidin-4-yl)amino)-9H-xanthen-4-yl)pyridin-2(1H)-one], the IC50 was in the range of 100 to 500 nM.

`CC(CCN1CCCCC1)Nc1ccc2c(c1)Sc1cccc(-c3cc(N4CCOCC4)cc(=O)[nH]3)c1S2` (stereo not drawn) [Example 1-42-3, 4-Morpholino-6-(7-((4-(piperidin-1-yl)butan-2-yl)amino)thianthren-1-yl) pyridin-2(1H)-one]: the IC50 is 100 to 500 nM.

Regarding `CNCC(Nc1ccc2c(c1)Sc1cccc(-c3cc(N4CCOCC4)cc(=O)[nH]3)c1S2)c1cccc(C)n1` (single isomer, unassigned) [Example 1-19-4-2, 6-(7-((2-(Methylamino)-1-(6-methylpyridin-2-yl)ethyl)amino)thianthren-1-yl)-4-morpholinopyridin-2(1H)-one], the IC50 was in the range of 500 to 2000 nM.

For the compound `CN1CCC[C@H]1CNc1ccc2c(c1)Sc1cccc(-c3cc(N4CCOCC4)cc(=O)[nH]3)c1S2` [Example 1-3, (S)-6-(7-(((1-methylpyrrolidin-2-yl)methyl)amino)thianthren-1-yl)-4-morpholinopyridin-2(1H)-one], the IC50 lay in the range of 100 to 500 nM.

With `Cc1ccc(C(Nc2ccc3c(c2)Sc2cccc(-c4cc(N5CCOCC5)cc(=O)[nH]4)c2S3)[C@@H]2CCN(C)C2)nc1` (single isomer, unassigned) [Example 1-56-16], the IC50 is below 100 nM.

For `Cc1ccnc(C(C)Nc2ccc3c(c2)Sc2cccc(-c4cc(N5CCOCC5)cc(=O)[nH]4)c2S3)n1` (single isomer, unassigned) [Example 1-12-144-2, 6-(7-((1-(4-methylpyrimidin-2-yl)ethyl)amino)thianthren-1-yl)-4-morpholinopyridin-2(1H)-one], the IC50 is 100 to 500 nM.

In the case of `CC(Nc1ccc2c(c1)Sc1cccc(-c3cc(N4CCOCC4)cc(=O)[nH]3)c1S2)c1nccs1` (stereo not drawn) [Example 1-12-67, 4-Morpholino-6-(7-((1-(thiazol-2-yl)ethyl)amino)thianthren-1-yl)pyridin-2 (1H)-one], the IC50 is 100 to 500 nM.

As to `Cc1ccc(C(Nc2ccc3c(c2)Sc2cccc(-c4cc(N5CCOCC5)cc(=O)[nH]4)c2S3)[C@@H]2CCCN2C)nc1` (single isomer, unassigned) [Example 1-56-2], the IC50 is 100 to 500 nM.

For `O=c1cc(N2CCOCC2)cc(-c2cccc3c2Sc2ccc(NCc4nccs4)cc2S3)[nH]1` [Example 1-12-52, 4-Morpholino-6-(7-((thiazol-2-ylmethyl)amino)thianthren-1-yl) pyridin-2 (1H)-one], the IC50 fell in the range of 100 to 500 nM.

For `CN1CCN(C(=O)CNc2ccc3c(c2)Sc2cccc(-c4cc(N5CCOCC5)cc(=O)[nH]4)c2S3)CC1` [Example 1-18-3], the IC50 is 500 to 2000 nM.

On to `Cc1cnc(C(C)Nc2ccc3c(c2)Cc2cccc(-c4cc(N5CCOCC5)cc(=O)[nH]4)c2O3)cn1` (single isomer, unassigned) [Example 2-14-90-1, 6-(7-((1-(5-methylpyrazin-2-yl)ethyl)amino)-9H-xanthen-4-yl)-4-morpholinopyridin-2(1H)-one], for which the IC50 is 500 to 2000 nM.

Turning to `O=c1cc(N2CCOCC2)cc(-c2cccc3c2Oc2cccc(N4CCOCC4)c2C3)[nH]1` [Example 2-60, 4-Morpholino-6-(8-morpholino-9H-xanthen-4-yl)pyridin-2(1H)-one], the IC50 was 100 to 500 nM.

Regarding `O=c1cc(N2CCOCC2)cc(-c2cccc3c2Sc2ccc(NCc4cncc(-c5cccnc5)c4)cc2S3)[nH]1` [Example 1-12-21, 6-(7-(([3,3′-Bipyridin]-5-ylmethyl)amino)thianthren-1-yl)-4-morpholino pyridin-2 (1H)-one], the IC50 is below 100 nM.

As for `CCCCN1CCC(Nc2ccc3c(c2)Cc2cccc(-c4cc(N5CCOCC5)cc(=O)[nH]4)c2O3)C1` (stereo not drawn) [Example 2-19-8, 6-(7-((1-Butylpyrrolidin-3-yl)amino)-9H-xanthen-4-yl)-4-morpholinopyridin-2(1H)-one], the IC50 lay within 100 to 500 nM.
